Reference: patent US20140154251A1, “ANTI C-MET ANTIBODY AND USES THEREOF” (Samsung Electronics Co., Ltd., priority 2011, published 2014)

Assays:
[1] = test system: MHCC97H (human liver cancer cell line); experiment: MHCC97H liver cancer xenograft model; assay type: in vivo, BALB/C nude mouse; conditions: 30 mg/kg p.o., q.d. x 4 weeks
Procedure: The antitumor activity of huAbF46-H4-A1(IgG2 Fc) was evaluated in a BALB/C nude mouse MHCC97H (human liver cancer cell line) xenograft model (referring to Example 16.2). Approximately 3 million MHCC97H cells in 100 μL of serum-free media were injected via s.c. to each of the 140 mice under anesthesia by 1-2% isoflurane. Ten days after subcutaneous inoculation with MHCC97H tumor cells, dosing commenced in the following treatment groups: 0 (PBS vehicle), 0.2, 1, 5 or 10 mg/kg huAbF46-H4-A1 (IgG2 Fc) i.v., q.w.×4 weeks; 30 mg/kg sorafenib p.o., q.d.×4 weeks (positive control). Each group consisted of 15 mice. Tumor volumes and body weights were measured two to three times a week for total study period about 4 weeks. The tumor volume (V) was calculated as follows: V (mm^3)={long axis length (mm)×(short axis length (mm))^2}/2.

[2] = test system: Akt; experiment: Akt phosphorylation in Caki-1 cells (phospho-AKT1 Ser473 ELISA); assay type: cell-based; conditions: 5 ug/ml, 30 minutes (FIG. 8B)
Procedure: To compare agonism of the 4 types of antibodies having improved affinities, as prepared in Example 5, Caki-1 cells (Korean Cell Line Bank) were used to confirm the degree of Akt phosphorylation. Mouse IgG was used as a negative control, and antibody 5D5 (a known agonist) was used as a positive control.
2×10^5 cells/ml of Caki-1 cells were introduced to a 96-well plate, and after 24 hours, each of 5 ug/ml of the antibodies was treated in serum free medium for 30 minutes. Lysis of the cells treated with the antibodies was performed and the degree of Akt phosphorylation was measured using a PathScan phospho-AKT1 (Ser473) chemiluminescent Sandwich ELISA kit (Cell Signaling, cat. no #7134S).
To compare agonism of the 3 types of antibodies having improved affinities, as prepared in Example 11, Caki-1 cells (Korean Cell Line Bank) were used to confirm the degree of Akt phosphorylation. Mouse IgG was used as a negative control, and a 5D5 antibody (a known agonist) was used as a positive control.
2×10^5 cells/ml of Caki-1 cells were introduced to a 96-well plate, and after 24 hours, each of 5 ug/ml of the antibodies was treated in serum free medium for 30 minutes. Lysis of the cells treated with antibodies was performed and a degree of Akt phosphorylation inhibition was measured using a PathScan phospho-AKT1 (Ser473) a chemiluminescent Sandwich ELISA kit (Cell Signaling, cat. no #7134S).

CNC(=O)c1cc(Oc2ccc(NC(=O)Nc3ccc(Cl)c(C(F)(F)F)c3)cc2)ccn1 [sorafenib, reference compound]
tumor growth (in words) [1]: significant inhibition

B1: L3-11Y: heavy chain of huAbF46-H4-A1 (IgG2 Fc) with light chain SEQ ID NO: 73 (serine 27e replaced with tryptophan) (antibody)
heavy: EVQLVESGGGLVQPGGSLRLSCAASGFTFTDYYMSWVRQAPGKGLEWLGFIRNKANGYTTEYSASVKGRFTISRDNSKNTLYLQMNSLRAEDTAVYYCARDNWFAYWGQGTLVTVSSASTKGPSVFPLAPCSRSTSESTAALGCLVKDYFPEPVTVSWNSGALTSGVHTFPAVLQSSGLYSLSSVVTVPSSNFGTQTYTCNVDHKPSNTKVDKTVERKCCVECPPCPAPPVAGPSVFLFPPKPKDTLMISRTPEVTCVVVDVSHEDPEVQFNWYVDGVEVHNAKTKPREEQFNSTFRVVSVLTVVHQDWLNGKEYKCKVSNKGLPAPIEKTISKTKGQPREPQVYTLPPSREEMTKNQVSLTCLVKGFYPSDIAVEWESNGQPENNYKTTPPMLDSDGSFFLYSKLTVDKSRWQQGNVFSCSVMHEALHNHYTQKSLSLSPGK
light: DIQMTQSPSSLSASVGDRVTITCKSSQSLLAWGNQNNYLAWYQQKPGKAPKMLIIWASTRVSGVPSRFSGSGSGTDFTLTISSLQPEDFATYYCQQSYSRPYTFGQGTKVEIKRTVAAPSVFIFPPSDEQLKSGTASVVCLLNNFYPREAKVQWKVDNALQSGNSQESVTEQDSKDSTYSLSSTLTLSKADYEKHKVYACEVTHQGLSSPVTKSFNRGEC
activity of Akt phosphorylation inhibition compared to huAbF46-H4-A1(IgG2 Fc) [2]: equal or higher activity of Akt phosphorylation inhibition
